The record followed here is ChEMBL document CHEMBL1158192, “Niruriside, a new HIV REV/RRE binding inhibitor from Phyllanthus niruri” (J Nat Prod, 1996).

The nature of assay [1]: Inhibition of HIV1 REV protein binding to HIV1 [P33]RRE RNA by liquid scintillation assay. The arrangement: species or system Human immunodeficiency virus 1.
A short description of assay [2]: Inhibition of R17 coat protein binding to [33P]labeled R17 operator RNA.
A short description of assay [3]: Ratio of IC50 for R17 activity to IC50 for HIV1 Rev activity.
The test system of assay [4] is Human immunodeficiency virus 1. Nature of the assay: Antiviral activity against HIV1 RF in CEM-SS cells assessed as cell protection against virus infection up to 260 uM by XTT assay. The assay is classed as functional, organism-based.

The source made the active and inactive calls. No cut-off for these calls is given here. A value given as a limit tells only on which side of the number the result lay.

Consider `CC(=O)OC[C@H]1O[C@H](O[C@]2(COC(C)=O)O[C@H](COC(=O)/C=C/c3ccccc3)[C@@H](O)[C@@H]2OC(=O)/C=C/c2ccccc2)[C@H](OC(C)=O)[C@@H](O)[C@@H]1OC(C)=O` [NIRURIDE], for which the IC50 in assay [1] was 3.3 µM; in assay [2] it was more than 130 µM. Also, the Ratio IC50 in assay [3] was more than 40. For the same molecule, in assay [4], the result was inactive.
